Results on two compounds are retold here after patent US10786577B2, “Pharmaceutical composition comprising glutatione disulfide and glutathione disulfide S-oxide” (OBSCHESTVO S OGRANICHENNOY OTVETSTVENNOSTJU “IVA FARM”, priority 2017, dated 2020).

Assay [1] concerns glutathione peroxidase (XE 1.11.1.9). In words: Liver enzyme activity in rats with cyclophosphan hepatotoxicity. As to conditions: rat liver cytosolic fraction; cyclophosphan 20 mg/kg for 10 days; test substance intraperitoneally 10 mg/kg (compound 2: 0.1 mg/kg).
Assay [2] relates to glucose-6-phosphate dehydrogenase (XE 1.1.1.49). Described as above. Particulars: rat liver cytosolic fraction; cyclophosphan 20 mg/kg for 10 days; test substance intraperitoneally 10 mg/kg (compound 2: 0.1 mg/kg).
The subject of assay [3] is glutathione-S-transferase (XE 2.5.1.18). The description is as above. As to conditions: rat liver cytosolic fraction; cyclophosphan 20 mg/kg for 10 days; test substance intraperitoneally 10 mg/kg (compound 2: 0.1 mg/kg).
Assay [4] has as its system glutathione reductase (XE 1.6.4.2). Described as above. Particulars: rat liver cytosolic fraction; cyclophosphan 20 mg/kg for 10 days; test substance intraperitoneally 10 mg/kg (compound 2: 0.1 mg/kg).
For a further assay, the system named is reduced glutathione. In words: Liver reduced glutathione in rats with cyclophosphan hepatotoxicity. Particulars: rat liver; cyclophosphan 20 mg/kg for 10 days; test substance intraperitoneally 10 mg/kg (compound 2: 0.1 mg/kg).
The subject of assay [5] is cultured resident peritoneal rat macrophages. In words: Intracellular calcium concentration [Ca2+]i with Fura-2AM in macrophages. The class given is cell-based. On the technique in general: Calcium flux is commonly read through the fluorescence of an indicator in the cells.

As for `NC(CCC(=O)NC(CS[S+]([O-])CC(NC(=O)CCC(N)C(=O)O)C(=O)NCC(=O)O)C(=O)NCC(=O)O)C(=O)O` (stereo not shown) [Example 1, glutathione disulfide S-oxide], in assay [1], the GP is reported as 27.9 ± 2.2 μmol/(min × g protein. In assay [2], the G-6-PDG was 98.1 ± 13.3 μmol/(min × g protein. Moreover, in assay [3], the GST is given as 1857 ± 120 μmol/(min × g protein. Moreover, the GR in assay [4] is listed as 117.8 ± 12.6 μmol/(min × g protein. Besides, the GSH in the assay on reduced glutathione is on record as 11.21 ± 0.56 μmol/g protein.

As for `Nc1ncnc2c1ncn2[C@@H]1O[C@H](COP(=O)(O)OP(=O)(O)OP(=O)(O)O)[C@@H](O)[C@H]1O` [ATP], the “[Ca2+]i peak” value in assay [5] (200 μM extracellular ATP, macrophages in normal saline, basal level 75±18 nM) was found to be 820 ± 105 nM. For the same compound, the “average [Ca2+]i during plateau phase” value in assay [5] (4 minutes after the addition of ATP (200 μM), normal saline) is 460 ± 115 nM.
